Literature values, collected in patent publication US20040120985A1, “Food product for increasing the cognitive functional capacity” (priority 2001, published 2004).

What was measured:
[1] = oral administration
[2] = tested on: cognitive functional capacity; details: individuals older than 40 years, 100 mg to 300 mg per day
aging brain = details: animal experimental studies

- bioavailability [1]: good
- passage of the blood-brain barrier ([1]; after passing through the liver): crosses the blood-brain barrier
Substance: phosphatidyl serine
- cognitive functional capacity [2]: increased
- ATPase-dependent ion transport via the cell membrane (aging brain): improves the ATPase-dependent ion transport via the cell membrane
- age-related breakdown of the receptors for the nerve growth factor (aging brain): partially prevents the age-related breakdown of the receptors for the nerve growth factor
- cholesterol/phospholipid ratio in the aging brain (aging brain): normalizes the cholesterol/phospholipid ratio in the aging brain
- neuron atrophy (aging brain): protects against neuron atrophy
- protein kinase C balance (aging brain): normalizes the protein kinase C balance
- formation of nerve growth factors (aging brain; effect not identified for other phospholipids): promotes the formation of nerve growth factors
